The compounds below were run against N-terminally GST-tagged HCK (75-526) (Homo sapiens (Human), UniProt P08631) (assay: HCK Kinase Assay (ProFluor Src-Family Kinase Assay)). Settings: HCK inhibitory activity, 50 μM ATP; read-out: HCK Activity.
Assay type: biochemical
Outline: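 ProFluor Src-family format: after the kinase reaction, protease solution was added for 60 min at room temperature (22-25° C), then stabilizer.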

Sequence of N-terminally GST-tagged HCK (75-526) (P08631 75-526): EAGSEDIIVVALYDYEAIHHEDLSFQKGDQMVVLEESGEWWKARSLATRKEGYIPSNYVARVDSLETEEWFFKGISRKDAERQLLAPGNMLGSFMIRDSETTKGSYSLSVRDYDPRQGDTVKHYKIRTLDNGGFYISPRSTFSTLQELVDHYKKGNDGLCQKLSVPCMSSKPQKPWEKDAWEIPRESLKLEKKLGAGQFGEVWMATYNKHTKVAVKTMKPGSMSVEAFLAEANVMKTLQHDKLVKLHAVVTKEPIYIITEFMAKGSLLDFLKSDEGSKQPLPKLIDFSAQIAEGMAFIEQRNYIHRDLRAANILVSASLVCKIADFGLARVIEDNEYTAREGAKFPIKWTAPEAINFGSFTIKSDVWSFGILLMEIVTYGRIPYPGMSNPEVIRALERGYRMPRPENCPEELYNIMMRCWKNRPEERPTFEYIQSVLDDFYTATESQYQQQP

SMILES | IC50
Nc1ncnc2c1c(-c1ccc(Oc3ccccc3)cc1)cn2[C@H]1CC[C@@H](N2CCNCC2=O)CC1 [Example 91, 1-((cis)-4-(4-Amino-5-(4-phenoxyphenyl)-7H-pyrrolo[2,3-d]pyrimidin-7-yl)cyclohexyl)piperazin-2-one] | 50 to 250 nM
Nc1ncnc2c1c(-c1ccc(Oc3ccccc3)cc1)cn2C1CCC2(CC1)OCC(N)CO2 (stereo not shown) [Example 92, 7-(3-Amino-1,5-dioxaspiro[5.5]undecan-9-yl)-5-(4-phenoxyphenyl)-7H-pyrrolo [2,3-d]pyrimidin-4-amine] | 50 to 250 nM
Nc1ncnc2c1c(-c1ccc(Oc3ccccc3)cc1)cn2C1CCC2(CC1)NC(=O)N(c1ccncc1)C2=O (stereo not shown) [Example 93, 8-(4-Amino-5-(4-phenoxyphenyl)-7H-pyrrolo[2,3-d]pyrimidin-7-yl)-3-(pyridin-4-yl)-1,3-diazaspiro [4.5] decane-2,4-dione] | 50 to 250 nM
NC(=O)C=C1CCC(n2cc(-c3ccc(Oc4ccccc4)cc3)c3c(N)ncnc32)CC1 (stereo not shown) [Example 94, 2-(4-(4-Amino-5-(4-phenoxyphenyl)-7H-pyrrolo[2,3-d]pyrimidin-7-yl)cyclohexylidene)acetamide] | < 50 nM
COC(=O)CC1(N)CCC(n2cc(-c3ccc(Oc4ccccc4)cc3)c3c(N)ncnc32)CC1 (stereo not shown) [Example 95, Methyl 2-(1-amino-4-(4-amino-5-(4-phenoxyphenyl)-7H-pyrrolo[2,3-d]pyrimidin-7-yl)cyclohexyl) acetate] | 250 to 10000 nM
NC(=O)CC1(N)CCC(n2cc(-c3ccc(Oc4ccccc4)cc3)c3c(N)ncnc32)CC1 (stereo not shown) [Example 96, 2-(1-Amino-4-(4-amino-5-(4-phenoxyphenyl)-7H-pyrrolo[2,3-d]pyrimidin-7-yl)cyclohexyl)acetamide] | < 50 nM
CNC(=O)C=C1CCC(n2cc(-c3ccc(Oc4ccccc4)cc3)c3c(N)ncnc32)CC1 (stereo not shown) [Example 97, 2-(4-(4-amino-5-(4-phenoxyphenyl)-7H-pyrrolo[2,3-d]pyrimidin-7-yl)cyclohexylidene)-N-methylacetamide] | < 50 nM
CNC(=O)CC1(NC)CCC(n2cc(-c3ccc(Oc4ccccc4)cc3)c3c(N)ncnc32)CC1 (stereo not shown) [Example 98, 2-(4-(4-amino-5-(4-phenoxyphenyl)-7H-pyrrolo[2,3-d]pyrimidin-7-yl)-1-(methylamino)cyclohexyl)-N-methylacetamide] | < 50 nM
CCOC(=O)C1CC12CCC(n1cc(-c3ccc(Oc4ccccc4)cc3)c3c(N)ncnc31)CC2 (stereo not shown) [Example 99, Ethyl 6-(4-amino-5-(4-phenoxyphenyl)-7H-pyrrolo[2,3-d]pyrimidin-7-yl)spiro[2.5]octane-1-carboxylate] | < 50 nM
CN1CCN(CC2(O)CCC(n3cc(-c4ccc(Oc5ccccc5)cc4)c4c(N)ncnc43)CC2)CC1 (stereo not shown) [Example 100, 4-(4-Amino-5-(4-phenoxyphenyl)-7H-pyrrolo[2,3-d]pyrimidin-7-yl)-1-((4-methylpiperazin-1-yl)methyl)cyclohexanol] | 50 to 250 nM
Nc1ncnc2c1c(-c1ccc(Oc3ccccc3)cc1)cn2C1CCC(O)(Cn2ccnc2)CC1 (stereo not shown) [Example 101, 1-((1H-Imidazol-1-yl)methyl)-4-(4-amino-5-(4-phenoxyphenyl)-7H-pyrrolo[2,3-d]pyrimidin-7-yl)cyclohexanol] | 50 to 250 nM
Nc1ncnc2c1c(-c1ccc(Oc3ccccc3)cc1)cn2C1CCC(O)(Cn2cnnn2)CC1 (stereo not shown) [Example 102, 1-((1H-Tetrazol-1-yl)methyl)-4-(4-amino-5-(4-phenoxyphenyl)-7H-pyrrolo[2,3-d]pyrimidin-7-yl)cyclohexanol] | < 50 nM
CN1CCN([C@H]2CC[C@H](n3cc(-c4ccc(Oc5ccccc5)cc4F)c4c(N)ncnc43)CC2)CC1 [Example 105, 5-(2-fluoro-4-phenoxyphenyl)-7-((trans)-4-(4-methylpiperazin-1-yl)cyclohexyl)-7H-pyrrolo[2,3-d]pyrimidin-4-amine] | < 50 nM
CN1CCN([C@H]2CC[C@H](n3cc(-c4ccc(Oc5ccccc5)cc4Cl)c4c(N)ncnc43)CC2)CC1 [Example 106, 5-(2-chloro-4-phenoxyphenyl)-7-((trans)-4-(4-methylpiperazin-1-yl)cyclohexyl)-7H-pyrrolo[2,3-d]pyrimidin-4-amine] | < 50 nM
CN1CCN([C@H]2CC[C@H](n3nc(-c4c(F)cc(Oc5ccccc5)cc4F)c4c(N)ncnc43)CC2)CC1 [Example 107, 3-(2,6-difluoro-4-phenoxyphenyl)-1-((trans)-4-(4-methylpiperazin-1-yl)cyclohexyl)-1H-pyrazolo[3,4-d]pyrimidin-4-amine] | < 50 nM
CN1CCN([C@H]2CC[C@H](n3cc(-c4ccc(Oc5ccccc5F)cc4)c4c(N)ncnc43)CC2)CC1 [Example 108, 5-(4-(2-fluorophenoxy)phenyl)-7-((trans)-4-(4-methylpiperazin-1-yl)cyclohexyl)-7H-pyrrolo[2,3-d]pyrimidin-4-amine] | < 50 nM

SMILES | IC50
CN1CCN([C@H]2CC[C@H](n3cc(-c4ccc(Oc5c(F)cccc5F)cc4)c4c(N)ncnc43)CC2)CC1 [Example 109, 5-(4-(2,6-difluorophenoxy)phenyl)-7-((trans)-4-(4-methylpiperazin-1-yl)cyclohexyl)-7H-pyrrolo[2,3-d]pyrimidin-4-amine] | < 50 nM
COc1cc(-c2nn([C@H]3CC[C@H](N4CCN(C)CC4)CC3)c3ncnc(N)c23)ccc1Oc1ccccc1 [Example 110] | < 50 nM
Cc1ccc(Oc2ccc(-c3cn([C@H]4CC[C@H](N5CCN(C)CC5)CC4)c4ncnc(N)c34)cc2)cc1 [Example 111, 7-((trans)-4-(4-methylpiperazin-1-yl)cyclohexyl)-5-(4-(p-tolyloxy)phenyl)-7H-pyrrolo[2,3-d]pyrimidin-4-amine] | 50 to 250 nM
CN1CCN([C@H]2CC[C@H](n3cc(-c4ccc(Oc5ccccc5C#N)cc4)c4c(N)ncnc43)CC2)CC1 [Example 112, 2-(4-(4-amino-7-((trans)-4-(4-methylpiperazin-1-yl)cyclohexyl)-7H-pyrrolo[2,3-d]pyrimidin-5-yl)phenoxy)benzonitrile] | < 50 nM
CN1CCN([C@H]2CC[C@H](n3cc(-c4ccc(C(=O)c5ccccc5)cc4)c4c(N)ncnc43)CC2)CC1 [Example 113, (4-(4-amino-7-((trans)-4-(4-methylpiperazin-1-yl)cyclohexyl)-7H-pyrrolo[2,3-d]pyrimidin-5-yl)phenyl)(phenyl)methanone] | < 50 nM
CN1CCN([C@H]2CC[C@H](n3cc(-c4ccc(C(O)c5ccccc5)cc4)c4c(N)ncnc43)CC2)CC1 (stereo partly drawn) [Example 114, (4-(4-amino-7-((trans)-4-(4-methylpiperazin-1-yl)cyclohexyl)-7H-pyrrolo[2,3-d]pyrimidin-5-yl)phenyl)(phenyl)methanol] | < 50 nM
CN1CCN([C@H]2CC[C@H](n3cc(-c4ccc(Cc5ccccc5)cc4)c4c(N)ncnc43)CC2)CC1 [Example 115, 5-(4-benzylphenyl)-7-((trans)-4-(4-methylpiperazin-1-yl)cyclohexyl)-7H-pyrrolo[2,3-d]pyrimidin-4-amine] | < 50 nM
CN1CCN([C@H]2CC[C@H](n3cc(-c4ccc(Oc5cccnn5)cc4)c4c(N)ncnc43)CC2)CC1 [Example 116, 7-((trans)-4-(4-methylpiperazin-1-yl)cyclohexyl)-5-(4-(pyridazin-3-yloxy)phenyl)-7H-pyrrolo[2,3-d]pyrimidin-4-amine] | < 50 nM
CCc1cc(NC(=O)Nc2ccc(-c3cn([C@H]4CC[C@H](N5CCN(C)CC5)CC4)c4ncnc(N)c34)cc2)no1 [Example 117, 1-(4-(4-amino-7-((trans)-4-(4-methylpiperazin-1-yl)cyclohexyl)-7H-pyrrolo[2,3-d]pyrimidin-5-yl)phenyl)-3-(5-ethylisoxazol-3-yl)urea] | 50 to 250 nM
CCc1cc(NC(=O)Nc2ccc(-c3cn([C@H]4CC[C@H](N5CCN(C)CC5)CC4)c4ncnc(N)c34)cc2)on1 [Example 118, 1-(4-(4-amino-7-((trans)-4-(4-methylpiperazin-1-yl)cyclohexyl)-7H-pyrrolo[2,3-d]pyrimidin-5-yl)phenyl)-3-(3-ethylisoxazol-5-yl)urea] | 50 to 250 nM
CC(C)c1cc(NC(=O)Nc2ccc(-c3cn([C@H]4CC[C@H](N5CCN(C)CC5)CC4)c4ncnc(N)c34)cc2)no1 [Example 119, 1-(4-(4-amino-7-((trans)-4-(4-methylpiperazin-1-yl)cyclohexyl)-7H-pyrrolo[2,3-d]pyrimidin-5-yl)phenyl)-3-(5-isopropylisoxazol-3-yl)urea] | < 50 nM
CN1CCN([C@H]2CC[C@H](n3cc(-c4ccc(NC(=O)Nc5cc(C(C)(C)C)on5)cc4)c4c(N)ncnc43)CC2)CC1 [Example 120, 1-(4-(4-amino-7-((trans)-4-(4-methylpiperazin-1-yl)cyclohexyl)-7H-pyrrolo[2,3-d]pyrimidin-5-yl)phenyl)-3-(5-(tert-butyl)isoxazol-3-yl)urea] | < 50 nM
COc1cc(-c2nn([C@H]3CC[C@H](N4CCN(C)CC4)CC3)c3ncnc(N)c23)ccc1NC(=O)Nc1cc(C(C)(C)C)on1 [Example 123, 1-(4-(4-amino-1-((trans)-4-(4-methylpiperazin-1-yl)cyclohexyl)-1H-pyrazolo[3,4-d]pyrimidin-3-yl)-2-methoxyphenyl)-3-(5-(tert-butyl)isoxazol-3-yl)urea] | < 50 nM
CN1CCN([C@H]2CC[C@H](n3cc(-c4ccc(CC(=O)Nc5cc(C(C)(C)C)on5)cc4)c4c(N)ncnc43)CC2)CC1 [Example 124, 2-(4-(4-amino-7-((trans)-4-(4-methylpiperazin-1-yl)cyclohexyl)-7H-pyrrolo[2,3-d]pyrimidin-5-yl)phenyl)-N-(5-(tert-butyl)isoxazol-3-yl)acetamide] | 50 to 250 nM
[2H]c1c([2H])c([2H])c(Oc2ccc(-c3cn([C@H]4CC[C@H](N5CCN[C@@H](C)C5)CC4)c4ncnc(N)c34)cc2)c([2H])c1[2H] [Example 125, 7-((trans)-4-((S)-3-methylpiperazin-1-yl)cyclohexyl)-5-(4-pentadeuteriophenoxyphenyl)-7H-pyrrolo[2,3-d]pyrimidin-4-amine] | < 50 nM

Source: patent US11963960B2 (Flash Therapeutics, LLC, priority 2020, dated 2024)
